Results on 21 molecules are retold here after ChEMBL document CHEMBL1131484, “Human growth hormone-releasing hormone hGHRH(1-29)-NH2: systematic structure-activity relationship studies” (J Med Chem, 1998).

“And” between values parts separate entries of the source, which are not always exact repeats. Equal values may be shown once.

In this assay the target is T1, Growth hormone-releasing hormone receptor (Rattus norvegicus) (UniProt Q02644).
T1 sequence (whole entry): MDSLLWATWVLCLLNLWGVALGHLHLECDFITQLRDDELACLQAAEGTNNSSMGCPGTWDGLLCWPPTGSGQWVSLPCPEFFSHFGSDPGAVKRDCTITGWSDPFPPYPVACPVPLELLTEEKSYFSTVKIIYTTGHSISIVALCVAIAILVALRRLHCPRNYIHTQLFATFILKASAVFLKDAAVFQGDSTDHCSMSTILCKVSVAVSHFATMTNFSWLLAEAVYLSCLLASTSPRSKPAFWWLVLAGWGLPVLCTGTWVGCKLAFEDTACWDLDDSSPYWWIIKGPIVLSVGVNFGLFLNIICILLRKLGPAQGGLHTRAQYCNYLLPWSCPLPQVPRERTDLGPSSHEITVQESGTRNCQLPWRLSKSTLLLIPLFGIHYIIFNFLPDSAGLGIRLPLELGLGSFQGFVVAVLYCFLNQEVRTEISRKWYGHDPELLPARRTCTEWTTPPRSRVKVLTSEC
Briefly: Potency for growth hormone releasing hormone receptor (GHRFR) relative to human GHRH(1-40)OH- in the rat pituitary cell culture assay. Particulars: Pituitary gland cell. Type of assay: functional, cell-based.
For `CC[C@H](C)[C@H](NC(=O)[C@H](C)NC(=O)[C@H](CC(=O)O)NC(=O)[C@H](C)NC(=O)[C@@H](N)Cc1ccc(O)cc1)C(=O)N[C@@H](Cc1ccccc1)C(=O)N[C@H](C(=O)N[C@@H](CC(N)=O)C(=O)N[C@@H](CO)C(=O)N[C@@H](Cc1ccc(O)cc1)C(=O)N[C@@H](CCCN=C(N)N)C(=O)N[C@H]1CCC(=O)NCCCC[C@H](C(=O)N[C@H](CCC(N)=O)C(=O)N[C@H](CC(C)C)C(=O)N[C@H](CO)C(=O)N[C@H](C)C(=O)N[C@@H](CCCN=C(N)N)C(=O)N[C@@H](CCCCN)C(=O)N[C@@H](CC(C)C)C(=O)N[C@@H](CC(C)C)C(=O)N[C@@H](CCC(N)=O)C(=O)N[C@@H](CC(=O)O)C(=O)N[C@H](C(=O)N[C@@H](CCSC)C(=O)N[C@@H](CO)C(=O)N[C@@H](CCCN=C(N)N)C(N)=O)[C@@H](C)CC)NC(=O)[C@@H](CC(C)C)NC(=O)[C@H](C(C)C)NC1=O)[C@@H](C)O`, the Relative potency was 1.2.

Turning to `CC[C@H](C)[C@H](NC(=O)[C@H](C)NC(=O)[C@H](CC(=O)O)NC(=O)[C@H](C)NC(=O)[C@@H](N)Cc1ccc(O)cc1)C(=O)N[C@@H](Cc1ccccc1)C(=O)N[C@H](C(=O)N[C@@H](CC(N)=O)C(=O)N[C@@H](CO)C(=O)N[C@@H](Cc1ccc(O)cc1)C(=O)N[C@@H](CCCN=C(N)N)C(=O)N[C@@H](CCCCN)C(=O)N[C@H](C(=O)N[C@@H](CC(C)C)C(=O)NCC(=O)N[C@H]1CCC(=O)NCCCC[C@H](C(=O)N[C@@H](CCCN=C(N)N)C(=O)N[C@@H](CCCCN)C(=O)N[C@@H](CC(C)C)C(=O)N[C@@H](CC(C)C)C(=O)N[C@@H](CCC(N)=O)C(=O)N[C@@H](CC(=O)O)C(=O)N[C@H](C(=O)N[C@@H](CCSC)C(=O)N[C@@H](CO)C(=O)N[C@@H](CCCN=C(N)N)C(N)=O)[C@@H](C)CC)NC(=O)[C@@H](CO)NC(=O)[C@H](CC(C)C)NC1=O)C(C)C)[C@@H](C)O`, the Relative potency came out at 2.8.

Take `CC[C@H](C)[C@H](NC(=O)[C@H](C)NC(=O)[C@H](CC(=O)O)NC(=O)[C@H](C)NC(=O)[C@@H](N)Cc1ccc(O)cc1)C(=O)N[C@@H](Cc1ccccc1)C(=O)N[C@H](C(=O)N[C@@H](CC(N)=O)C(=O)N[C@@H](CO)C(=O)N[C@@H](Cc1ccc(O)cc1)C(=O)N[C@@H](CCCN=C(N)N)C(=O)N[C@@H](CCCCN)C(=O)N[C@H](C(=O)N[C@@H](CC(C)C)C(=O)NCC(=O)N[C@@H](CCC(N)=O)C(=O)N[C@@H](CC(C)C)C(=O)N[C@@H](CO)C(=O)N[C@@H](C)C(=O)N[C@@H](CCCN=C(N)N)C(=O)N[C@@H](CCCCN)C(=O)N[C@@H](CC(C)C)C(=O)N[C@@H](CC(C)C)C(=O)N[C@@H](CCC(N)=O)C(=O)N[C@@H](CC(=O)O)C(=O)N[C@H](C(=O)N[C@@H](CCSC)C(=O)N[C@@H](CO)C(=O)N[C@@H](CCCN=C(N)N)C(=O)N[C@@H](CCC(N)=O)C(=O)N[C@H](CCC(N)=O)C(=O)NCC(=O)N[C@@H](CCC(=O)O)C(=O)N[C@@H](CO)C(=O)N[C@@H](CC(N)=O)C(=O)N[C@@H](CCC(N)=O)C(=O)N[C@@H](CCC(=O)O)C(=O)N[C@@H](CCCN=C(N)N)C(=O)NCC(=O)N[C@@H](C)C(=O)O)[C@@H](C)CC)C(C)C)[C@@H](C)O`: the Relative potency came to 1.

For H-YADAIFTNSYRAVLGQLSARKLLQDIMSR-NH2, the Relative potency was 0.16.

`CC[C@H](C)[C@H](NC(=O)[C@H](C)NC(=O)[C@H](CC(=O)O)NC(=O)[C@H](C)NC(=O)[C@@H](N)Cc1ccc(O)cc1)C(=O)N[C@@H](Cc1ccccc1)C(=O)N[C@H](C(=O)N[C@@H](CC(N)=O)C(=O)N[C@@H](CO)C(=O)N[C@@H](Cc1ccc(O)cc1)C(=O)N[C@@H](CCCN=C(N)N)C(=O)N[C@@H](CCCCN)C(=O)N[C@H](C(=O)N[C@@H](CC(C)C)C(=O)NCC(=O)N[C@@H](CCC(N)=O)C(=O)N[C@@H](CC(C)C)C(=O)N[C@@H](CO)C(=O)N[C@@H](C)C(=O)N[C@@H](CCCN=C(N)N)C(=O)N[C@@H](CCCCN)C(=O)N[C@@H](CC(C)C)C(=O)N[C@@H](CC(C)C)C(=O)N[C@@H](CCC(N)=O)C(=O)N[C@@H](CC(=O)O)C(=O)N[C@H](C(=O)N[C@@H](CCSC)C(=O)N[C@@H](C)C(=O)N[C@@H](CCCN=C(N)N)C(N)=O)[C@@H](C)CC)C(C)C)[C@@H](C)O` (stereo in doubt; 39) returned a Relative potency of 2.2.

Molecule H-YADAIFTNSYRKVAGQLSARKLLQDIMSR-NH2 registered a Relative potency of 0.01.

H-YADAIFTNSYAKVLGQLSARKLLQDIMSR-NH2 gave a Relative potency of 0.01.

`CCCC[C@H]1NC(=O)[C@H]([C@@H](C)CC)NC(=O)[C@H](NC(=O)[C@H](Cc2c[nH]cn2)NC(=O)[C@H](CC(C)C)NC(=O)[C@H](CC(C)C)NC(=O)[C@H](CCCCN)NC(=O)[C@H](CCCN=C(N)N)NC(=O)[C@H](Cc2ccccc2)NC(=O)[C@@H](NC(=O)[C@H](CC(C)C)NC(=O)[C@H](CCC(N)=O)NC(=O)[C@H](C)NC(=O)[C@H](CC(C)C)NC(=O)[C@@H](NC(=O)[C@H](CCCN=C(N)N)NC(=O)[C@H](CCCN=C(N)N)NC(=O)[C@H](Cc2ccc(O)cc2)NC(=O)[C@H](CO)NC(=O)[C@H](CO)NC(=O)[C@@H](NC(=O)[C@H](Cc2ccccc2)NC(=O)[C@@H](NC(=O)[C@H](C)NC(=O)[C@H](CC(=O)O)NC(=O)[C@H](C)NC(=O)[C@@](C)(N)Cc2c[nH]cn2)[C@@H](C)CC)[C@@H](C)O)[C@@H](C)CC)[C@@H](C)CC)CSSC[C@H](C(N)=O)NC(=O)[C@H](CC(N)=O)NC1=O` yielded a Relative potency of 1.5.

With H-YADAIFTNSYRKVLGQLSARKLAQDIMSR-NH2, the Relative potency amounted to 0.07.

The molecule H-YADAIFTNSARKVLGQLSARKLLQDIMSR-NH2 displayed a Relative potency of 0.01.

As to H-YADAIFTNSYRKVLGQLSARKLLQDIMSA-NH2, the Relative potency was 0.59.

With H-YADAIFTASYRKVLGQLSARKLLQDIMSR-NH2, the Relative potency is 2.1.

Turning to `CCCC[C@H](NC(=O)[C@@H](NC(=O)[C@H](CC(=O)O)NC(=O)[C@H](CCC(N)=O)NC(=O)[C@H](CC(C)C)NC(=O)[C@H](CC(C)C)NC(=O)[C@H](CCCCN)NC(=O)[C@H](CCCN=C(N)N)NC(=O)[C@H](C)NC(=O)[C@H](CO)NC(=O)[C@H](CC(C)C)NC(=O)[C@H](CCC(N)=O)NC(=O)CNC(=O)[C@H](CC(C)C)NC(=O)[C@@H](NC(=O)[C@H](CCCCN)NC(=O)[C@H](CCCN=C(N)N)NC(=O)[C@H](Cc1ccc(O)cc1)NC(=O)[C@H](CO)NC(=O)[C@H](CC(N)=O)NC(=O)[C@@H](NC(=O)[C@H](Cc1ccccc1)NC(=O)[C@@H](NC(=O)[C@H](C)NC(=O)[C@H](CC(=O)O)NC(=O)[C@H](C)NC(=O)[C@@H](N)Cc1ccc(O)cc1)[C@@H](C)CC)[C@@H](C)O)C(C)C)[C@@H](C)CC)C(=O)N[C@@H](CO)C(=O)N[C@@H](CCCN=C(N)N)C(N)=O`, the Relative potency came to 2.38.

The molecule H-YADAIFANSYRKVLGQLSARKLLQDIMSR-NH2 registered a Relative potency of 0.29.

As to H-YAAAIFTNSYRKVLGQLSARKLLQDIMSR-NH2, the Relative potency stood at 0.05.

H-AADAIFTNSYRKVLGQLSARKLLQDIMSR-NH2 came in with a Relative potency of 0.01.

Regarding H-YADAIFTNSYRKVLGQLSARKALQDIMSR-NH2, the Relative potency is 4.7.

H-YADAIFTNSYRKVLGALSARKLLQDIMSR-NH2 came in with a Relative potency of 1.5.

With `CC[C@H](C)[C@H](NC(=O)[C@H](C)NC(=O)[C@H](CC(=O)O)NC(=O)[C@H](C)NC(=O)[C@@H](N)Cc1ccc(O)cc1)C(=O)N[C@@H](Cc1ccccc1)C(=O)N[C@H](C(=O)N[C@@H](CC(N)=O)C(=O)N[C@@H](CO)C(=O)N[C@@H](Cc1ccc(O)cc1)C(=O)N[C@@H](CCCN=C(N)N)C(=O)N[C@@H](CCCCN)C(=O)N[C@H](C(=O)N[C@@H](CC(C)C)C(=O)NCC(=O)N[C@H](CCC(N)=O)C(=O)N[C@H](CC(C)C)C(=O)N[C@H](CO)C(=O)N[C@H](C)C(=O)N[C@H](CCCN=C(N)N)C(=O)N[C@H](CCCCN)C(=O)N[C@@H]1CCC(=O)NCCCC[C@@H](C(=O)N[C@H](C(=O)N[C@@H](CCSC)C(=O)N[C@@H](CO)C(=O)N[C@@H](CCCN=C(N)N)C(N)=O)[C@@H](C)CC)NC(=O)[C@H](CCC(N)=O)NC(=O)[C@@H](CC(C)C)NC1=O)C(C)C)[C@@H](C)O`, the Relative potency is 5.3 and 8.8.

On to H-YADAIFTNSYRKVLGQLAARKLLQDIMSR-NH2, for which the Relative potency was 1.6 and 1.4.

For `CCCC[C@H]1NC(=O)[C@H]([C@@H](C)CC)NC(=O)[C@@H](NC(=O)[C@H](Cc2c[nH]cn2)NC(=O)[C@H](CC(C)C)NC(=O)[C@H](CC(C)C)NC(=O)[C@H](CCCCN)NC(=O)[C@H](CCCN=C(N)N)NC(=O)[C@H](Cc2ccccc2)NC(=O)[C@@H](NC(=O)[C@H](CC(C)C)NC(=O)[C@H](CCC(N)=O)NC(=O)[C@H](C)NC(=O)[C@H](CC(C)C)NC(=O)[C@@H](NC(=O)[C@H](CCCN=C(N)N)NC(=O)[C@H](CCCN=C(N)N)NC(=O)[C@H](Cc2ccc(O)cc2)NC(=O)[C@H](CO)NC(=O)[C@H](CO)NC(=O)[C@@H](NC(=O)[C@H](Cc2ccccc2)NC(=O)[C@@H](NC(=O)[C@H](C)NC(=O)[C@H](CC(=O)O)NC(=O)[C@H](C)NC(=O)[C@@](C)(N)Cc2c[nH]cn2)[C@@H](C)CC)[C@@H](C)O)[C@@H](C)CC)[C@@H](C)CC)CSSC[C@@H](C(N)=O)NC(=O)[C@H](CC(N)=O)NC1=O`, the Relative potency turned out to be 1.1.
